Data from patent US20160067193A1, “TOPICAL PTEROSTILBENE COMPOSITIONS FOR USE IN TREATING UV-INDUCED SKIN DAMAGE AND HYPERPLASIA” (The Regents of the University of California, priority 2014, published 2016).

Columns and labels:
mouse epidermis = conditions: cited from earlier work
[1] = cited from earlier work; for bioavailability: in vivo
skin of SKH-1 mice [2] = assay: ELISA of UV-B induced DNA damage (CPD, 64 pp) in back skin DNA of SKH-1 mice; type: in vivo; conditions: topical 10 μmol/mouse before 180 mJ/cm^2 UV-B, 14-day experiment
Source text: FIGS. 3A and 3B depict the manner in which pterostilbene prevents UV-B induced DNA damage in the skin of SKH-1 mice, namely (A) CPD or (B) 64 pp DNA damage. ELISAs are shown for different arms of mouse study (Abs. 492 nm). * indicates p<0.01 as compared with vehicle (VEH). (RES) is resveratrol and (PTERO) is pterostilbene. NS is not significant.
(§1) UV-B exposure. Mice were exposed to a single dose of 180 mJ/cm^2 UVB radiation delivered via broadband UVB lamps (TL 40 W/12 RS; Philips) emitting 290-350 nm light with a peak emission at 312 nm. The irradiance was measured using a thermopile sensor (818P-001-12; Newport Inc., Irvine, Calif.) and power meter (842-PE; Newport Inc.).
ELISAS. DNA was isolated from snap frozen whole back skin using Qiagen QIAamp Blood mini kit (cat #51104) per manufacturer's instructions. ELISAs were performed on purified DNA with anti-CPD (clone TDM2) and anti-64 PP (clone 64M-2) antibodies using manufacturer's protocol and read using a DTX 800 Multimode Detector plate reader (Beckman Coulter) using standard settings from colorimetric detection. Four technical replicates were used and DNA-free wells were used as negative control.
Hairless SKH-1 mice were used to evaluate the effectiveness of pterostilbene at preventing UV-mediated damage in skin. The SKH-1 model is ideally suited for this purpose and is commonly used in preclinical studies and yielded valuable results. […] To ascertain if pterostilbene could also prevent those molecular alterations, we replicated these experiments. […] For all topical treatments 200 μl total volume was applied to the back skin of the mouse. For acetone group, 200 μl of acetone was applied. […] These mice were treated every 2 days for 7 total treatments. […] 24 hrs after last treatment, mice were euthanized, skin bi-fold measurements taken and back skins collected. As shown in FIGS. 2 and 3A-B, pterostilbene prevented UV-B-induced damage in mouse skin. […] This prevention of visual skin damage by pterostilbene correlated nicely with the prevention of DNA damage. […] Therefore pterostilbene prevented the 2 major types of UV-induced DNA damage (CPD and 64 pp) in the skin of SKH-1 mice.
DNA was obtained from the back skin of the SKH-1 mice from the experiment above after completion of the 14-day experiment. This DNA was then examined for DNA damage (both CPD and 64 pp) quantitatively using ELISA as previously described (Nishiwaki, Y., et al., “Trichothiodystrophy fibroblasts are deficient in the repair of ultraviolet-induced cyclobutane pyrimidine dimers and (6-4) photoproducts,” J. Invest. Dermatol. (2004) 122: 526-32). […] Quantification of DNA damage was measured at 492 nm by a spectrophotometer.

[3] = In vitro glucuronidation assay with pooled human liver microsomes; type: in vitro ADME; conditions: 100 μg pooled human liver microsomes (n=20), 500 μM compound, HPLC 308 nm
skin of SKH-1 mice [4] = assay: UV-B induced visual skin damage (redness) in SKH-1 mice, topical treatment; type: in vivo; conditions: topical 10 μmol/0.2 ml acetone/mouse 30 min before 180 mJ/cm^2 UV-B, every 2 days, 7 treatments, 5 mice per group
Protocol: FIG. 2 depicts the manner in which pterostilbene prevents UV-B induced damage in the skin of SKH-1 mice. […] Photographs show representative mice after 4th treatment.
as §1
Hairless SKH-1 mice were used to evaluate the effectiveness of pterostilbene at preventing UV-mediated damage in skin. The SKH-1 model is ideally suited for this purpose and is commonly used in preclinical studies and yielded valuable results. […] To ascertain if pterostilbene could also prevent those molecular alterations, we replicated these experiments. […] For all topical treatments 200 μl total volume was applied to the back skin of the mouse. For acetone group, 200 μl of acetone was applied. […] These mice were treated every 2 days for 7 total treatments. […] 24 hrs after last treatment, mice were euthanized, skin bi-fold measurements taken and back skins collected. As shown in FIGS. 2 and 3A-B, pterostilbene prevented UV-B-induced damage in mouse skin. […] This prevention of visual skin damage by pterostilbene correlated nicely with the prevention of DNA damage. […]

[5] = rats, relative to resveratrol; cited from earlier work
[6] = 125 mg orally twice a day, human; cited from earlier work
skin of SKH-1 mice [7] = assay: UV-B mediated bi-fold skin thickening and hyperplasia (H&E) in SKH-1 mice; type: in vivo; conditions: topical 10 μmol/mouse before 180 mJ/cm^2 UV-B
Protocol: FIG. 3C depicts the manner in which pterostilbene prevents UV-mediated bi-fold skin thickening. Bi-fold skin measurements (mm) were made using a digital caliper. At least three measurements for each mouse were taken along the back.
FIG. 4 depicts the manner in which pterostilbene prevents UV-mediated hyperplasia. H&E stains of back skins from mice in the indicated treatment arms (i.e., UV-B treated and control) were performed.
as §1
Hairless SKH-1 mice were used to evaluate the effectiveness of pterostilbene at preventing UV-mediated damage in skin. The SKH-1 model is ideally suited for this purpose and is commonly used in preclinical studies and yielded valuable results. […] To ascertain if pterostilbene could also prevent those molecular alterations, we replicated these experiments. […] For all topical treatments 200 μl total volume was applied to the back skin of the mouse. For acetone group, 200 μl of acetone was applied. […] These mice were treated every 2 days for 7 total treatments. […]

| SMILES | COX-2 activation and TPA-induced tumor formation in mouse epidermis in vivo (mouse epidermis; 12-O-tetradecanoylphorbol-13-acetate (TPA), mouse epidermis in vivo) | potency versus resveratrol in inhibition of NF-KB, AP-1 and iNOS activation in mouse skin (mouse epidermis; mouse skin) | half life t1/2 in blood [1] | bioavailability [1] | 64 pp DNA damage by ELISA (Abs. 492 nm) (skin of SKH-1 mice [2]) | CPD DNA damage by ELISA (Abs. 492 nm) (skin of SKH-1 mice [2]) | extent of metabolism (glucuronidation) after 2 hours [3] [%] | redness (sunburn) on back skin (skin of SKH-1 mice [4]) | increased bioavailability versus resveratrol [5] [fold] | overall blood pressure [6] | toxicity in patients [6] | UV-mediated bi-fold skin thickening (skin of SKH-1 mice [7]; digital caliper on dorsal skin, versus vehicle+UV-B) | UV-mediated hyperplasia (H&E stain of back tissue) (skin of SKH-1 mice [7]; formalin fixed paraffin embedded back tissue) |
| --- | --- | --- | --- | --- | --- | --- | --- | --- | --- | --- | --- | --- | --- |
| COc1cc(/C=C/c2ccc(O)cc2)cc(OC)c1 [pterostilbene, 3,5-dimethoxy-4′-hydroxy-trans-stilbene] | prevent COX-2 activation and 12-O-tetradecanoylphorbol-13-acetate (TPA)-induced tumor formation | equally or significantly more potent than resveratrol | about 105 minutes | orally bioavailable | no 64 pps are observed | no CPDs were detected | 20 | no redness was observed on any of the 5 mice | 5 | reduction in overall blood pressure was observed | no toxicity reported | prevented UV-mediated bi-fold skin thickening | prevented UV-mediated hyperplasia at the cellular level |
| Oc1ccc(C=Cc2cc(O)cc(O)c2)cc1 [resveratrol, reference compound] |  |  | about 14 minutes | poor bioavailability | no 64 pps are observed | quantitatively detected above background |  | able to limit the amount of redness observed on the back, it did not prevent it |  |  |  |  |  |
